For one compound, Activity results are on record in ChEMBL document CHEMBL2073984, “Nonlinear oral pharmacokinetics of the alpha-antagonist 4-amino-5-(4-fluorophenyl)-6,7-dimethoxy-2-[4-(morpholinocarbonyl)-perhydro-1,4-diazepin-1-yl]quinoline in humans: use of preclinical data to rationalize clinical observations” (Drug Metab Dispos, 2004).

This series concerns the target ATP-dependent translocase ABCB1 (Homo sapiens, UniProt P08183). Description: TP_TRANSPORTER: transepithelial transport in Caco2 cells. The conditions noted are these: caco-2. Type of series: functional, cell-based.

Chain of ATP-dependent translocase ABCB1 (P08183 whole entry): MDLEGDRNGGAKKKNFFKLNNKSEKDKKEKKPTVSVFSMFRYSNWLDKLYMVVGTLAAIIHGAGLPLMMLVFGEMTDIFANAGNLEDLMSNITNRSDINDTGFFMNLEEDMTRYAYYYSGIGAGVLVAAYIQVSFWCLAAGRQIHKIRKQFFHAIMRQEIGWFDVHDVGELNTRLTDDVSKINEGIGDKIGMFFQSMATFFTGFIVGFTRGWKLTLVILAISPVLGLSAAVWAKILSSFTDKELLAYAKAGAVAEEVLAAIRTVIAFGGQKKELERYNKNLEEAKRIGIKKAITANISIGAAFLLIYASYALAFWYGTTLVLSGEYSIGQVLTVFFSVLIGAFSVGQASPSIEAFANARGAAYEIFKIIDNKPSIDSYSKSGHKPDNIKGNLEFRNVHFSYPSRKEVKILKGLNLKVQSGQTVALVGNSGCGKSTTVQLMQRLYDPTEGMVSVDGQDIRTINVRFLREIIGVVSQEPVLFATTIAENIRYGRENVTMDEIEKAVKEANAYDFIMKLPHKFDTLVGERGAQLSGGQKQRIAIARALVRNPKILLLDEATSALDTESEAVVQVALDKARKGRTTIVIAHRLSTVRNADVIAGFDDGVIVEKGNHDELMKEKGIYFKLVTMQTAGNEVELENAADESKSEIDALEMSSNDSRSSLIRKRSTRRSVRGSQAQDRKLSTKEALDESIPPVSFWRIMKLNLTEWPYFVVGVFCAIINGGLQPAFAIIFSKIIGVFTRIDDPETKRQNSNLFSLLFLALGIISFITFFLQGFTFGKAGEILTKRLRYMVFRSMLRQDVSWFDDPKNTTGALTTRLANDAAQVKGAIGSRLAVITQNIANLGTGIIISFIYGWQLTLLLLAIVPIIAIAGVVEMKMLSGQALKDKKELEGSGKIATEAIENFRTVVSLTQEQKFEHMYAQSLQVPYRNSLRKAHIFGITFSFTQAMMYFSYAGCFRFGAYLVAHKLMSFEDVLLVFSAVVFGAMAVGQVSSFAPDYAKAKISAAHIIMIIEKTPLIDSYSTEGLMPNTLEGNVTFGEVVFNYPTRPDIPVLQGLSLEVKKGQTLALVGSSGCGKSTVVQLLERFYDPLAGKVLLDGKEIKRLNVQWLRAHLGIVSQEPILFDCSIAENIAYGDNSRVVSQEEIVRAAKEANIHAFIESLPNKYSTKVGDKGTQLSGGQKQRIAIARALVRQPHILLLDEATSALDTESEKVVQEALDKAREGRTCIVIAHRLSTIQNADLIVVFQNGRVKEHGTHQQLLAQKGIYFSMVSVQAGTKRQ

Consider `COc1cc2nc(N3CCCN(C(=O)N4CCOCC4)CC3)cc(N)c2c(-c2ccc(F)cc2)c1OC`, for which the Activity result is “substrate [+]”.
